According to US10918642B2, “N-(substituted-phenyl)-sulfonamide derivatives as kinase inhibitors” (Nerviano Medical Sciences S.R.L., priority 2016, dated 2021):

Target: PERK recombinant enzyme (cytoplasmic domain corresponding to residues 540-1115) (Homo sapiens (Human), UniProt Q9NZJ5)
Test: PERK enzyme assay, Method 1: ADP-Glo Kinase Assay (quantification of ADP formed)
Type: biochemical
Settings: 52 microM ATP, 8 nM PERK, 300 microM eIF2alpha peptide substrate, 60 minutes at room temperature
Description: The biochemical activity of compounds was determined by incubation with PERK recombinant enzyme (cytoplasmic domain corresponding to residues 540-1115) and elF2alpha peptide substrate (Aminoacid sequence: LLSELSRRRIRSINK—SEQ ID Nr: 1; purchased from American Peptide Company, product #341923). This was followed by:
Method 1: Quantification of the ADP Tormed from the Kinase Reaction by ADP-Glo™ Kinase Assay (Promega Cat. 9102). Utra Pure ATP was Included into ADP-Glo™ Kinase Assay kit.
Compounds were 3-fold serially diluted in order to obtain from 3.333 to 0.000169 microM final concentration, then incubated for 60 minutes at room temperature in the presence of ATP, substrate and enzyme in a final volume of 15 microL of kinase buffer in 384-well plates (Perkin Elmer cat. #6007290).
The final concentration of the different reagents is 52 microM ATP, 8 nM PERK, 300 microM substrate, 50 mM Hepes pH 7.5, 3 mM MgCl2, 1 mM DTT, 3 microM Na3VO4, 0.2 mg/ml BSA, 1% DMSO.
After 60 minutes, an equal volume (15 microL) of ADP-Glo™ Reagent was added to each well to terminate the kinase reaction and deplete the remaining ATP. After 40 minutes, 30 microL of Kinase Detection Reagent is added, which simultaneously converts ADP to ATP and allows the newly synthesized ATP to be measured using a coupled luciferase/luciferin reaction. After further 40 minutes luminescence was read by ViewLux Instrument (Perkin Elmer). The data are analyzed by GraphPad Prism software which provides sigmoidal fittings of the curves for IC50 determination using a 4 parameter logistic equation: y=bottom+(top−bottom)/(1+10^((log IC50−x)*slope))
where x is the logarithm of the inhibitor concentration, y is the response; y starts at bottom and goes to top with a sigmoid shape.

Sequence of PERK recombinant enzyme (cytoplasmic domain corresponding to residues 540-1115) (Q9NZJ5 540-1115): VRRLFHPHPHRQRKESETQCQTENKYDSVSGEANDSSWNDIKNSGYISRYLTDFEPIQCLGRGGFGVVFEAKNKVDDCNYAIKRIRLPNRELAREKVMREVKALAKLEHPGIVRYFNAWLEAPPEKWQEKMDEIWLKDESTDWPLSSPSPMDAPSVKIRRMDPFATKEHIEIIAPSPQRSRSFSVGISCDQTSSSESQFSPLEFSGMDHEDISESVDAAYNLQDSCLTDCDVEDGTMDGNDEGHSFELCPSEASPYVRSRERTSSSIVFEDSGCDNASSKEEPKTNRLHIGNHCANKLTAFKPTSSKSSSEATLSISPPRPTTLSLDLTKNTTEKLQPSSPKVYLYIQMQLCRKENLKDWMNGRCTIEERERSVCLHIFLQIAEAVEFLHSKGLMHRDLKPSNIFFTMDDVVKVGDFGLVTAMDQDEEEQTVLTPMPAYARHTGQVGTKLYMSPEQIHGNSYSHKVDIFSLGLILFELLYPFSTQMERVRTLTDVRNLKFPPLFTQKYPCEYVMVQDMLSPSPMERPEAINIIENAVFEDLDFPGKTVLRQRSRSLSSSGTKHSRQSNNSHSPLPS

IC50 [nM] | pIC50 | Compound
50.1 to 158 |  | Cn1cc(-c2cccc(NS(=O)(=O)c3c(F)cccc3F)c2F)c2c(N)ncnc21 [cmpd 23, N-[3-(4-Amino-7-methyl-7H-pyrrolo[2,3-d]pyrimidin-5-yl)-2-fluoro-phenyl]-2,6-difluoro-benzenesulfonamide]
15.8 to 50.1 |  | Cn1cc(-c2cccc(NS(=O)(=O)c3cc(F)c(F)c(F)c3)c2F)c2c(N)ncnc21 [cmpd 32, N-[3-(4-Amino-7-methyl-7H-pyrrolo[2,3-d]pyrimidin-5-yl)-2-fluoro-phenyl]-3,4,5-trifluoro-benzenesulfonamide]
50.1 to 158 |  | COc1cc(F)c(S(=O)(=O)Nc2cccc(-c3cn(C4CCOCC4)c4ncnc(N)c34)c2F)cc1Cl [cmpd 76, N-{3-[4-Amino-7-(tetrahydro-pyran-4-yl)-7H-pyrrolo[2,3-d]pyrimidin-5-yl]-2-fluoro-phenyl}-5-chloro-2-fluoro-4-methoxy-benzenesulfonamide]
15.8 to 50.1 |  | Cn1cc(-c2cccc(NS(=O)(=O)c3ccc(Cl)c(Cl)c3)c2F)c2c(N)ncnc21 [cmpd 25, N-[3-(4-Amino-7-methyl-7H-pyrrolo[2,3-d]pyrimidin-5-yl)-2-fluoro-phenyl]-3,4-dichloro-benzenesulfonamide]
 | AA (7.8 ≤ pIC50) | COc1ccc(S(=O)(=O)Nc2cccc(-c3cn(C(C)C)c4ncnc(N)c34)c2F)cc1Cl [cmpd 2, N-[3-(4-Amino-7-isopropyl-7H-pyrrolo[2,3-d]pyrimidin-5-yl)-2-fluoro-phenyl]-3-chloro-4-methoxy-benzenesulfonamide]
50.1 to 158 |  | COc1ccc(S(=O)(=O)Nc2cccc(-c3cn(C)c4ncnc(N)c34)c2F)cc1 [cmpd 14, N-[3-(4-Amino-7-methyl-7H-pyrrolo[2,3-d]pyrimidin-5-yl)-2-fluoro-phenyl]-4-methoxy-benzenesulfonamide]
15.8 to 50.1 |  | Cn1cc(-c2cccc(NS(=O)(=O)c3ccc(Br)c(C(F)(F)F)c3)c2F)c2c(N)ncnc21 [cmpd 51, N-[3-(4-Amino-7-methyl-7H-pyrrolo[2,3-d]pyrimidin-5-yl)-2-fluoro-phenyl]-4-bromo-3-trifluoromethyl-benzenesulfonamide]
15.8 to 50.1 |  | COc1ccc(S(=O)(=O)Nc2cccc(-c3cn(C4CCN(C(C)C)CC4)c4ncnc(N)c34)c2F)cc1C [cmpd 40, N-{3-[4-Amino-7-(1-isopropyl-piperidin-4-yl)-7H-pyrrolo[2,3-d]pyrimidin-5-yl]-2-fluoro-phenyl}-4-methoxy-3-methyl-benzenesulfonamide]
 | AA (7.8 ≤ pIC50) | COc1cc(F)c(S(=O)(=O)Nc2cccc(-c3cn(C)c4ncnc(N)c34)c2F)cc1C [cmpd 44, N-[3-(4-Amino-7-methyl-7H-pyrrolo[2,3-d]pyrimidin-5-yl)-2-fluoro-phenyl]-2-fluoro-4-methoxy-5-methyl-benzenesulfonamide]
15.8 to 50.1 |  | COc1ccc(S(=O)(=O)Nc2cccc(-c3cn(C4CCOCC4)c4ncnc(N)c34)c2F)cc1C [cmpd 36, N-{3-[4-Amino-7-(tetrahydro-pyran-4-yl)-7H-pyrrolo[2,3-d]pyrimidin-5-yl]-2-fluoro-phenyl}-4-methoxy-3-methyl-benzenesulfonamide]
15.8 to 50.1 |  | Cn1cc(-c2cccc(NS(=O)(=O)c3cc(Cl)cc(Cl)c3)c2F)c2c(N)ncnc21 [cmpd 26, N-[2-(4-Amino-7-methyl-7H-pyrrolo[2,3-d]pyrimidin-5-yl)-2-fluoro-phenyl]-3,5-dichloro-benzenesulfonamide]
50.1 to 158 |  | COc1cc(F)c(S(=O)(=O)Nc2cccc(-c3csc4ccnc(N)c34)c2F)cc1Cl [cmpd 59, N-[3-(4-Amino-thieno[3,2-c]pyridin-3-yl)-2-fluoro-phenyl]-5-chloro-2-fluoro-4-methoxy-benzenesulfonamide]
 | AA (7.8 ≤ pIC50) | Cc1cc(S(=O)(=O)Nc2cccc(-c3cn(C)c4ncnc(N)c34)c2F)ccc1Br [cmpd 52, N-[3-(4-Amino-7-methyl-7H-pyrrolo[2,3-d]pyrimidin-5-yl)-2-fluoro-phenyl]-4-bromo-3-methyl-benzenesulfonamide]
15.8 to 50.1 |  | COc1ccc(S(=O)(=O)Nc2cccc(-c3cn(C)c4ncnc(N)c34)c2F)cc1C#N [cmpd 86, N-[3-(4-Amino-7-methyl-7H-pyrrolo[2,3-d]pyrimidin-5-yl)-2-fluoro-phenyl]-3-cyano-4-methoxy-benzenesulfonamide]
15.8 to 50.1 |  | Cn1cc(-c2cccc(NS(=O)(=O)c3ccc([N+](=O)[O-])cc3)c2F)c2c(N)ncnc21 [cmpd 19, N-[3-(4-Amino-7-methyl-7H-pyrrolo[2,3-d]pyrimidin-5-yl)-2-fluoro-phenyl]-4-nitro-benzenesulfonamide]
15.8 to 50.1 |  | CCN1CCC(n2cc(-c3cccc(NS(=O)(=O)c4ccc(OC)c(C)c4)c3F)c3c(N)ncnc32)CC1 [cmpd 41, N-{3-[4-Amino-7-(1-ethyl-piperidin-4-yl)-7H-pyrrolo[2,3-d]pyrimidin-5-yl]-2-fluoro-phenyl}-4-methoxy-3-methyl-benzenesulfonamide]
 | A (7.3 ≤ pIC50 < 7.8) | COc1ccc(S(=O)(=O)Nc2cccc(-c3cn(C)c4ncnc(N)c34)c2F)cc1Cl [cmpd 1, N-[3-(4-Amino-7-methyl-7H-pyrrolo[2,3-d]pyrimidin-5-yl)-2-fluoro-phenyl]-3-chloro-4-methoxy-benzenesulfonamide]
 | AA (7.8 ≤ pIC50) | COc1ccc(S(=O)(=O)Nc2cccc(-c3cn(C)c4ncnc(N)c34)c2F)cc1Br [cmpd 87, N-[3-(4-Amino-7-methyl-7H-pyrrolo[2,3-d]pyrimidin-5-yl)-2-fluoro-phenyl]-3-bromo-4-methoxy-benzenesulfonamide]
15.8 to 50.1 |  | CCn1cc(-c2cccc(NS(=O)(=O)c3cc(Cl)c(OC)cc3F)c2F)c2c(N)ncnc21 [cmpd 75, N-[3-(4-Amino-7-ethyl-7H-pyrrolo[2,3-d]pyrimidin-5-yl)-2-fluoro-phenyl]-5-chloro-2-fluoro-4-methoxy-benzenesulfonamide]
15.8 to 50.1 |  | COc1c(C)cc(S(=O)(=O)Nc2cccc(-c3cn(C)c4ncnc(N)c34)c2F)cc1C [cmpd 29, N-[3-(4-Amino-7-methyl-7H-pyrrolo[2,3-d]pyrimidin-5-yl)-2-fluoro-phenyl]-4-methoxy-3,5-dimethyl-benzenesulfonamide]
15.8 to 50.1 |  | Cn1cc(-c2cccc(NS(=O)(=O)c3ccc(Cl)cc3F)c2F)c2c(N)ncnc21 [cmpd 85, N-[3-(4-Amino-7-methyl-7H-pyrrolo[2,3-d]pyrimidin-5-yl)-2-fluoro-phenyl]-4-chloro-2-fluoro-benzenesulfonamide]
50.1 to 158 |  | Cn1cc(-c2cccc(NS(=O)(=O)c3ccc(C(F)(F)F)cc3)c2F)c2c(N)ncnc21 [cmpd 15, N-[3-(4-Amino-7-methyl-7H-pyrrolo[2,3-d]pyrimidin-5-yl)-2-fluoro-phenyl]-4-trifluoromethyl-benzenesulfonamide]
50.1 to 158 |  | COc1cc(F)c(S(=O)(=O)Nc2cccc(-c3cn(C(C)C)c4ncnc(N)c34)c2F)cc1Cl [cmpd 74, N-[3-(4-Amino-7-isopropyl-7H-pyrrolo[2,3-d]pyrimidin-5-yl)-2-fluoro-phenyl]-5-chloro-2-fluoro-4-methoxy-benzenesulfonamide]

Compound | IC50 [nM] | pIC50
Cn1cc(-c2cccc(NS(=O)(=O)c3cccc(Cl)c3)c2F)c2c(N)ncnc21 [cmpd 13, N-[3-(4-Amino-7-methyl-7H-pyrrolo[2,3-d]pyrimidin-5-yl)-2-fluoro-phenyl]-3-chloro-benzenesulfonamide] |  | AA (7.8 ≤ pIC50)
COc1ccc(S(=O)(=O)Nc2cccc(-c3nn(C)c4ncnc(N)c34)c2F)cc1Cl [cmpd 35, N-[3-(4-Amino-1-methyl-1H-pyrazolo[3,4-d]pyrimidin-3-yl)-2-fluoro-phenyl]-3-chloro-4-methoxy-benzenesulfonamide] |  | AA (7.8 ≤ pIC50)
